Experimental data published in patent publication US12458630B2, “Combination therapy for cancer” (The Regents of the University of California, priority 2020, dated 2025).
Entries after “also recorded” stand apart in the source; their conditions may differ.

Test system: MIA PaCa-2 cells
Assay: TMR-DEX macropinosome uptake assay
Type: cell-based, human
Description: Cell imaging. Immunostaining was performed as described^44. Cells were cultured on coverslips and fixed in 4% PFA for 10 min at room temperature. After washing twice in PBS, cells were incubated in PBS containing 10% FBS to block nonspecific sites of antibody adsorption. The cells were then incubated with the appropriate primary antibodies (diluted 1:100) and secondary antibodies (diluted 1:500) in PBS containing 10% FBS with or without 0.1% saponin. For cell macropinosome visualization, 24 hrs after seeding, the cells were serum starved for 18 hrs. Macropinosomes were marked using a high-molecular-mass (70 KD) TMR-Dextran (Invitrogen)-uptake assay, wherein TMR-DEX was added to serum-free medium at a final concentration of 1 mg/ml for 30 min at 37° C. At the end of the incubation period, the cells were rinsed five times in cold PBS and immediately fixed in 4% PFA. For tissue macropinosome visualization^45, fresh pancreata were cut into pieces with an approximate 5-mm cuboidal shape. A tissue section was placed in a 24-well plate and injected 150 μL of 10 mg/ml TMR-DEX solution directly into the tissue piece. Another 250 μL of diluted TMR-DEX solution were added to the well to immerse the tissue section. The plate was incubated in the dark for 15 min at room temperature. Then the tissue section was rinsed twice in PBS before embedding in O.C.T. compound in a prelabeled cryomold. Specimens were frozen on dry ice and stored at −80° C. for further processing. Immunostaining was performed as described above. Images were captured using a TCS SPE Leica confocal microscope (Leica, Germany).
In some embodiments, Immunostaining was performed as described (Su et al., 2017). Cells were cultured on coverslips and fixed in 4% PFA for 10 min at room temperature or methanol for 10 min at −20° C. After washing twice in PBS, cells were incubated in PBS containing 10% FBS to block nonspecific sites of antibody adsorption. The cells were then incubated with the appropriate primary antibodies (diluted 1:100) and secondary antibodies (diluted 1:500) in PBS containing 10% FBS with or without 0.1% saponin. For cell macropinosome visualization, 24 hrs after seeding, the cells were serum starved for 18 hrs. Macropinosomes were marked using a high-molecular-mass (70 KDa) TMR-DEX (Invitrogen)-uptake assay, wherein TMR-DEX was added to serum-free medium at a final concentration of 1 mg/ml for 30 min at 37° C. At the end of the incubation period, the cells were rinsed five times in cold PBS and immediately fixed in 4% PFA. For tissue macropinosome visualization (Lee et al., 2019), fresh pancreata were cut into pieces with an approximate 5-mm cuboidal shape. Tissue fragments were placed in a 24-well plate and injected with 150 μL of 10 mg/ml TMR-DEX solution. Another 250 μL of diluted TMR-DEX solution were added to the well to immerse the tissue fragment. The plate was incubated in the dark for 15 min at room temperature. Then the tissue fragments were rinsed twice in PBS before embedding in O.C.T. compound in a prelabeled cryomold. Specimens were frozen on dry ice and stored at −80° C. for further processing. Immunostaining was performed as described above. Images were captured using a TCS SPE Leica confocal microscope (Leica, Germany).
Quantification and statistics. To quantify the number of LC3 puncta, a total of 30 cells were recorded and analyzed using the LAS X measurement program on the TCS SPE Leica. Macropinosomes were quantified by using the ‘Analyze Particles’ feature in ImageJ (National Institutes of Health). Macropinocytic uptake index was computed by determining the total macropinosome area in relation to the total cell area for each field and then by determining the average across all the fields (at least 6 fields). These measurements were done on randomly-selected fields of view. Two-tailed unpaired Student's t test was performed for statistical analysis using GraphPad Prism software. […]

SMILES	macropinosome formation (TMR-DEX labeling) (parental and IKKα-KO (IKKα^Δ) MIA PaCa-2 cells, 75 μM EIPA)	relative macropinocytic uptake (macropinosomes) (MIA PaCa-2 cells +/- MRT68921)
CCN(c1nc(N)c(C(=O)N=C(N)N)nc1Cl)C(C)C [EIPA, 5-(N-ethyl-N-isopropyl) amiloride]	blocks macropinosome formation; also recorded: inhibited; also recorded: suppressed	
CN1CCc2cc(Nc3ncc(C4CC4)c(NCCCNC(=O)C4CCC4)n3)ccc2C1 [MRT68921]		more macropinosomes; also recorded: increased macropinosomes; also recorded: enhanced
